We go through 36 compounds from ChEMBL document CHEMBL1137718, “Topological descriptors in modeling the agonistic activity of human A3 adenosine receptor ligands: the derivatives of 2-chloro-N(6)-substituted-4'-thioadenosine-5'-uronamide” (Eur J Med Chem, 2009).

The assay addresses T1, Adenosine receptor A3 (Homo sapiens, UniProt P0DMS8).
T1 sequence (P0DMS8 whole entry): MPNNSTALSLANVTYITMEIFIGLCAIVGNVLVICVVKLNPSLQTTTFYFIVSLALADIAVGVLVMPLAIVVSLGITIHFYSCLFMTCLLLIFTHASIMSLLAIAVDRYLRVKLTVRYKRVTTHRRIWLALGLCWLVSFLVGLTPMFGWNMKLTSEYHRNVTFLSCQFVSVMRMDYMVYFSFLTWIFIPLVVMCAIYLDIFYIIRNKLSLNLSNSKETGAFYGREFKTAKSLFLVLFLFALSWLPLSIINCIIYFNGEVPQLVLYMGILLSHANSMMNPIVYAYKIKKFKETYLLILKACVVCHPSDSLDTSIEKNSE
Put plainly: Displacement of [125I][…] from human adenosine A3 receptor expressed in CHO cells. Format: cell-based. In general terms: Displacement assays read how much labelled ligand stays bound in the presence of the test substance.

With `CCNC(=O)[C@H]1S[C@@H](n2cnc3c(NCc4cccc(I)c4)nc(Cl)nc32)[C@H](O)[C@@H]1O`, the affinity corresponds to a Ki of 0.891 nM.
Then `Cc1ccccc1CNc1nc(Cl)nc2c1ncn2[C@@H]1O[C@H](C(=O)NCC2CC2)[C@@H](O)[C@H]1O`, with 29.5 nM; and `O=C([C@H]1S[C@@H](n2cnc3c(NCc4cccc(I)c4)nc(Cl)nc32)[C@H](O)[C@@H]1O)N1CCC(Cc2ccccc2)CC1`, with 871 nM.
Then `O=C(NCCc1ccccc1)[C@H]1O[C@@H](n2cnc3c(NCc4cccc(I)c4)nc(Cl)nc32)[C@H](O)[C@@H]1O`, with 437 nM; and `CNC(=O)[C@H]1S[C@@H](n2cnc3c(NC4CCCC4)nc(Cl)nc32)[C@H](O)[C@@H]1O`, with 4.27 nM.
Then `O=C([C@H]1S[C@@H](n2cnc3c(NCc4cccc(I)c4)nc(Cl)nc32)[C@H](O)[C@@H]1O)N1CCOCC1`, with 513 nM; and `Cc1ccccc1CNc1nc(Cl)nc2c1ncn2[C@@H]1O[C@H](C(=O)N(C)C)[C@@H](O)[C@H]1O`, with 631 nM.
With `CNC(=O)[C@H]1O[C@@H](n2cnc3c(NC4CC4)nc(Cl)nc32)[C@H](O)[C@@H]1O`, the inhibition constant Ki was 2.24 nM.
The value for `CNc1nc(Cl)nc2c1ncn2[C@@H]1O[C@H](C(=O)NCCc2cccc(F)c2)[C@@H](O)[C@H]1O` was 85.1 nM.
Then `CNc1nc(Cl)nc2c1ncn2[C@@H]1O[C@H](C(=O)NCC2CC2)[C@@H](O)[C@H]1O`, with 1.1 nM.
Compound `Cc1ccccc1CNc1nc(Cl)nc2c1ncn2[C@@H]1O[C@H](C(=O)NC2CC2)[C@@H](O)[C@H]1O` gave an inhibition constant (Ki) of 27.5 nM.
Then `O=C(NCc1cccc(C(F)(F)F)c1)[C@H]1O[C@@H](n2cnc3c(NCc4cccc(I)c4)nc(Cl)nc32)[C@H](O)[C@@H]1O`, with 355 nM.
Then `CNc1nc(Cl)nc2c1ncn2[C@@H]1O[C@H](C(=O)NC2CC2)[C@@H](O)[C@H]1O`, with 2.82 nM.
The value for `O=C(NCCC(c1ccccc1)c1ccccc1)[C@H]1O[C@@H](n2cnc3c(NCc4cccc(I)c4)nc(Cl)nc32)[C@H](O)[C@@H]1O` was 347 nM.
`CNc1nc(Cl)nc2c1ncn2[C@@H]1O[C@H](C(=O)NCCC(C)C)[C@@H](O)[C@H]1O` showed an inhibitory constant (Ki) of 1.62 nM.
Compound `O=C(NC1CC1)[C@H]1S[C@@H](n2cnc3c(NCc4cccc(I)c4)nc(Cl)nc32)[C@H](O)[C@@H]1O` gave a Ki of 2.95 nM.
Then `CCNC(=O)[C@H]1O[C@@H](n2cnc3c(NCc4ccccc4C)nc(Cl)nc32)[C@H](O)[C@@H]1O`, with 2.51 nM; and `CNc1nc(Cl)nc2c1ncn2[C@@H]1O[C@H](C(=O)N2CCC(Cc3ccccc3)CC2)[C@@H](O)[C@H]1O`, with 3470 nM; and `O=C(NC1CCC1)[C@H]1S[C@@H](n2cnc3c(NCc4cccc(I)c4)nc(Cl)nc32)[C@H](O)[C@@H]1O`, with 18.2 nM.
With `O=C([C@H]1O[C@@H](n2cnc3c(NCc4cccc(I)c4)nc(Cl)nc32)[C@H](O)[C@@H]1O)N1CCN(c2ccc(F)cc2)CC1`, the Ki is 1450 nM.
`CCNC(=O)[C@H]1O[C@@H](n2cnc3c(NC4CC4)nc(Cl)nc32)[C@H](O)[C@@H]1O`: the Ki is 0.676 nM.
The value for `CNc1nc(Cl)nc2c1ncn2[C@@H]1O[C@H](C(=O)N(C)C)[C@@H](O)[C@H]1O` was 1510 nM; that for `Cc1ccccc1CNc1nc(Cl)nc2c1ncn2[C@@H]1O[C@H](C(=O)N2CCC(Cc3ccccc3)CC2)[C@@H](O)[C@H]1O` was 49000 nM; that for `CNC(=O)[C@H]1O[C@@H](n2cnc3c(NCc4ccccc4C)nc(Cl)nc32)[C@H](O)[C@@H]1O` was 2.19 nM.
The value for `CNC(=O)[C@H]1O[C@@H](n2cnc3c(N)nc(Cl)nc32)[C@H](O)[C@@H]1O` was 0.398 nM; that for `CNc1nc(Cl)nc2c1ncn2[C@@H]1O[C@H](C(=O)NCCC(c2ccccc2)c2ccccc2)[C@@H](O)[C@H]1O` was 417 nM.
The value for `O=C(NCc1cccc(Cl)c1)[C@H]1O[C@@H](n2cnc3c(NCc4cccc(I)c4)nc(Cl)nc32)[C@H](O)[C@@H]1O` was 309 nM.
The compound `CNc1nc(Cl)nc2c1ncn2[C@@H]1O[C@H](C(=O)N2CCN(c3ccc(F)cc3)CC2)[C@@H](O)[C@H]1O` had an inhibition constant (Ki) of 2690 nM.
Then `Cc1ccccc1CNc1nc(Cl)nc2c1ncn2[C@@H]1O[C@H](C(=O)N2CCOCC2)[C@@H](O)[C@H]1O`, with 7590 nM.
For `O=C([C@H]1O[C@@H](n2cnc3c(NC4CC4)nc(Cl)nc32)[C@H](O)[C@@H]1O)N1CCOCC1`, the affinity, expressed as Ki, was 4470 nM.
The value for `O=C(NC1CC1)[C@H]1S[C@@H](n2cnc3c(NC4CC4)nc(Cl)nc32)[C@H](O)[C@@H]1O` was 5.62 nM; that for `O=C([C@H]1O[C@@H](n2cnc3c(NC4CC4)nc(Cl)nc32)[C@H](O)[C@@H]1O)N1CCC(Cc2ccccc2)CC1` was 3980 nM.
Then `CC(C)CCNC(=O)[C@H]1O[C@@H](n2cnc3c(NCc4cccc(I)c4)nc(Cl)nc32)[C@H](O)[C@@H]1O`, with 41.7 nM.
The value for `O=C(NCC1CC1)[C@H]1S[C@@H](n2cnc3c(NCc4cccc(I)c4)nc(Cl)nc32)[C@H](O)[C@@H]1O` was 3.63 nM.
For the compound `CNc1nc(Cl)nc2c1ncn2[C@@H]1O[C@H](C(=O)N2CCOCC2)[C@@H](O)[C@H]1O`, the affinity, expressed as Ki, was 3890 nM.
Then `CNc1nc(Cl)nc2c1ncn2[C@@H]1O[C@H](C(=O)NCc2cccc(F)c2)[C@@H](O)[C@H]1O`, with 17.4 nM.

As usually defined, the Ki is a measure of affinity in units of concentration, obtained from inhibition or displacement.
